{"source": "patent EP1401829B1", "about": "“NOVEL HETEROCYCLIC ANTIBACTERIAL COMPOUNDS” (Microbiotix, Inc., priority 2001, dated 2002)", "key": {"B. subtilis Pol IIIC": {"target": "T1, B. subtilis Pol IIIC (Bacillus subtilis, UniProt P13267)", "T1 construct": "made in house", "T1 sequence (P13267 whole entry)": "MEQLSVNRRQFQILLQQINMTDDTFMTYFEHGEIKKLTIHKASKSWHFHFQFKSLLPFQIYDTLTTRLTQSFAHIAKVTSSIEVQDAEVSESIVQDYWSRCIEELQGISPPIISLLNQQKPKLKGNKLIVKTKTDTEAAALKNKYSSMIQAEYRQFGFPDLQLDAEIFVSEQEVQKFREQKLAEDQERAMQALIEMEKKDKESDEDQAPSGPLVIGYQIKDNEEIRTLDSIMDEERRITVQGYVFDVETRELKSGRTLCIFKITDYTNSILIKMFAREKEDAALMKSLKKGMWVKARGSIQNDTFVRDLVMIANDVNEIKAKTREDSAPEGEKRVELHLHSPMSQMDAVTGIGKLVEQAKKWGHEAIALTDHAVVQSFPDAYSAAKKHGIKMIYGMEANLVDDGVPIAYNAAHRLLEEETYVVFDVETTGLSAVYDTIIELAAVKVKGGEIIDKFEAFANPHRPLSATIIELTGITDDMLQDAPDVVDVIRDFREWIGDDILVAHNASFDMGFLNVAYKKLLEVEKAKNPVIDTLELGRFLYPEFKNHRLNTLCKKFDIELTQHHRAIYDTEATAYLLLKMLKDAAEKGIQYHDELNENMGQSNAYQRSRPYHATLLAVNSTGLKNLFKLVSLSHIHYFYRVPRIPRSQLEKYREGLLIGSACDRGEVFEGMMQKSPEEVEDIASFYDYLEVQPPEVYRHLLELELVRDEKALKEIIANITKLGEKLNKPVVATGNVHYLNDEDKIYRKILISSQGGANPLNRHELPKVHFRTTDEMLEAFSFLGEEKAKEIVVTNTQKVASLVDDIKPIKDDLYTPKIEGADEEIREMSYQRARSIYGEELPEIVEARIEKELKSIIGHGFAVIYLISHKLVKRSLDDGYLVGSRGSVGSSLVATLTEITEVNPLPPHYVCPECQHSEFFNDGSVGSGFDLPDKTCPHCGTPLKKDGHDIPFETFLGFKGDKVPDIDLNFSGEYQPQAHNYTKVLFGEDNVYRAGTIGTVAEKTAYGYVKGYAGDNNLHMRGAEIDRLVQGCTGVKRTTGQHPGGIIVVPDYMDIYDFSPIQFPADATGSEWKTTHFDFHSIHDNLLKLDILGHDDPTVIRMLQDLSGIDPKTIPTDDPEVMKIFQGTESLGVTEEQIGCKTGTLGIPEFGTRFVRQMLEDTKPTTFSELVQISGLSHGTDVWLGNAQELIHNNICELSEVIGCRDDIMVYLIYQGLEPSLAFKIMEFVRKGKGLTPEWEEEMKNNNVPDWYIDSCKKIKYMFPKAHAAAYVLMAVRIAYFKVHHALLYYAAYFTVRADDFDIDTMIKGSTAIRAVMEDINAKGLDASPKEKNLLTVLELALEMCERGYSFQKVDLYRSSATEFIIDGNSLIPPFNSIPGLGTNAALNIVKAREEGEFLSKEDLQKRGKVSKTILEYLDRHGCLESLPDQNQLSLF", "assay": "Polymerase IIIC (Pol IIIC) assay, determination of Ki values", "assay_type": "biochemical", "conditions": "Ki (µM) Pol IIIC, assay in absence of dGTP or dATP; Ki is the concentration that reduces control polymerase IIIC activity by 50 percent", "how_it_was_run": "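Isolated B. subtilis Pol IIIC (0.025–0.06 units) run 10 min at 30°C in 30 mM Tris pH 7.5, 10 mM Mg acetate, 4 mM DTT, 20% glycerol. Substrates were 0.4 mg/ml activated calf thymus DNA, 25 µM dNTPs and 10 µM [3H]dTTP, with dGTP or dATP omitted per compound structure.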"}, "B. subtilis": {"test_system": "B. subtilis", "assay": "Minimal Inhibitory Concentration (MIC) determination, 96 well plates", "assay_type": "cell-based, Bacillus subtilis", "conditions": "Bacillus subtilis; HBI medium, 16 to 18 hours at 37°C; read-out: MIC (µg/ml) B. subtilis", "how_it_was_run": "(§1)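 Broth growth in Heart-Brain Infusion medium, seeded at about 1x10^5 CFU/ml, 16 to 18 hours at 37°C. Growth read at OD 600 nm as percent of untreated control; five concentrations per drug, five data points each, MIC reported in µg/ml.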"}, "S. aureus": {"test_system": "S. aureus", "assay": "Minimal Inhibitory Concentration (MIC) determination, 96 well plates", "assay_type": "cell-based, Staphylococcus aureus", "conditions": "Staphylococcus aureus, read-out: MIC (µg/ml) S. aureus", "how_it_was_run": "(§2)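 Cultures seeded at approximately 1x10^5 CFU/ml in Heart-Brain Infusion medium were exposed to five compound concentrations, five data points each, for 16 to 18 hours at 37°C. Growth at OD 600 nm was expressed as percent of control, and MIC values are given in µg/ml.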"}, "S.aureus (Smith)": {"test_system": "S.aureus (Smith)", "assay": "Minimal Inhibitory Concentration (MIC) determination, 96 well plates", "assay_type": "cell-based, Staphylococcus aureus", "conditions": "Staphylococcus aureus", "how_it_was_run": "as §1"}, "E. fecalis": {"test_system": "E. fecalis", "assay": "Minimal Inhibitory Concentration (MIC) determination, 96 well plates", "assay_type": "cell-based, Enterococcus fecalis", "conditions": "Enterococcus; HBI medium, 16 to 18 hours at 37°C; read-out: MIC (µg/ml) E. fecalis", "how_it_was_run": "as §1"}, "E. fecium": {"test_system": "E. fecium", "assay": "Minimal Inhibitory Concentration (MIC) determination, 96 well plates", "assay_type": "cell-based, Enterococcus fecium", "conditions": "Enterococcus; HBI medium, 16 to 18 hours at 37°C; read-out: MIC (µg/ml) E. fecium", "how_it_was_run": "as §1"}, "E. coli": {"test_system": "E. coli", "assay": "Minimal Inhibitory Concentration (MIC) determination, 96 well plates", "assay_type": "cell-based, Escherichia coli", "conditions": "Escherichia coli; HBI medium, 16 to 18 hours at 37°C; read-out: MIC (µg/ml) E. coli", "how_it_was_run": "as §2"}, "MRSA 1123": {"test_system": "MRSA 1123", "assay": "MIC against clinically relevant strains", "assay_type": "cell-based", "conditions": "Staphylococcus aureus, methicillin resistant S. aureus strain", "method": "(§3) The following methods were used to characterize representative compounds. Minimal Inhibitory Concentration (MIC) determinations. MIC values were determined in 96 well plates, with bacterial growth monitored at OD 600 nm in 200µl following an initial bacterial seeding at approximately 1x10^5 colony forming units (CFU)/ml. Each drug is evaluated at five concentrations, with five data points at each dilution. MIC values (µg/ml) were determined against actively growing cultures in Heart-Brain Infusion (HBI) medium. Cell growth in cultures supplemented with a test compound was calculated as a percent of control at OD 600 nm after 16 to 18 hours at 37°C. This plate format conserves test compound and provides precise, quantitative data with low standard deviation determinations. Polymerase IIIC (Pol IIIC) assay. DNA polymerase activity (or inhibition thereof) was measured in a 96-well plate format. B. subtilis Pol IIIC was isolated as described by Hammond and Brown (Protein Expr. Purif., 3: 65-70 (1992)). Each 25 µl assay contained 30 mM Tris, pH 7.5, 10 mM magnesium acetate, 4 mM dithiothreitol, 20% glycerol, with 25 µM dATP, dCTP, dGTP and 10 µM dTTP (^3H-labelled at 1.44 Ci/mmole) and 0.4 mg/ml activated calf thymus DNA as substrates, as described previously (see Barnes et al, op. cit). Assays were initiated by the addition of 0.025 to 0.06 units of enzyme 1 unit is the amount required to incorporate 250 pmoles of [^3H] dTMP in a standard assay), incubated for 10 minutes at 30°C and terminated by the addition of 200 µl of cold 10% trichloroacetic acid (TCA),10 mM sodium pyrophosphate. Precipitated labeled DNA was collected on glass fiber filter plates, washed, dried, and counted in a liquid scintillation counter. Determination of Ki values. DNA polymerase activity was measured in a 96-well plate format in the absence of dGTP or dATP, depending on the structure of the test compound. Each 25 µl assay contained 30 mM Tris, pH 7.5, 10 mM magnesium acetate, 4 mM dithiothreitol, 20% glycerol, with 25 µM dATP, dCTP, and 10 µM dTTP (^3H-labelled at 1.44 Ci/mmole) and 0.4 mg/ml activated calf thymus DNA as substrates, as described previously. To each well were added 2 µl of compound solution to give final concentrations ranging from 20 - 0.027 µg/ml in the assay. Assays were initiated by the addition of 0.025 to 0.06 units of enzyme (1 unit is the amount required to incorporate 250 pmoles of [^3H] dTMP in a standard assay), incubated for 10 minutes at 30 °C and terminated by the addition of 200 µl of cold 10% trichloroacetic acid, 10 mM sodium pyrophosphate. Precipitated labeled DNA was collected on glass fiber filter plates, washed, dried, and counted in a liquid scintillation counter. Ki is the concentration of test compound that reduces the control polymerase IIIC activity by 50 percent.\n(§4) Compounds were also tested for antibacterial activity against certain clinically relevant strains, e.g., methicillin sensitive (MSSA) and methicillin resistant (MRSA) strains of Staphylococcus aureus."}, "MRSA1094": {"test_system": "MRSA1094", "assay": "MIC against clinically relevant strains", "assay_type": "cell-based", "conditions": "Staphylococcus aureus; methicillin resistant S. aureus strain", "method": "as §3, §4"}, "MRSA1132": {"test_system": "MRSA1132", "assay": "MIC against clinically relevant strains", "assay_type": "cell-based", "conditions": "Staphylococcus aureus; methicillin resistant S. aureus strain", "method": "as §3, §4"}, "MSSA108": {"test_system": "MSSA108", "assay": "MIC against clinically relevant strains", "assay_type": "cell-based", "conditions": "Staphylococcus aureus; methicillin sensitive S. aureus strain", "method": "as §3, §4"}, "MRSA 1094": {"test_system": "MRSA 1094", "assay": "In vivo efficacy of Compound 70 in mouse models", "parameters": "species or system Staphylococcus aureus", "conditions": "mice, 10^7 CFU/mouse + 5% Mucin; positive control, 30mg/kg, t=0", "method": "(§5) Swiss Webster mice, ca. 20 g each, were infected with Staphylococcus aureus (Smith strain) by the intraperitoneal route. Test compounds (2, 4, 5, 6, 7, 8, 10, 12) were dissolved in 10% dimethylsulfoxide in peanut oil to a concentration of 2 mg/ml. Vancomycin was used as positive control drug (i.e., protection from lethal infection). Fifteen minutes after infection, test compounds, vancomycin, or vehicle alone were given intraperitoneally to groups of five mice each. Animals were monitored for three days, and the number of mice surviving was tabulated for each treatment.\n(§6) Using the same basic procedure as described above, the in vivo efficacy of Compound 70 was also evaluated at various doses in mice infected with S. aureaus (Smith), MRSA 1094, Enterococcus faecalis, or vancomycin-resistant Enterococcus faecalis strain VRE 700802. […] Negative controls were mice infected that received no treatment. Mucin was employed as an adjuvant to facilitate bacterial infection in mice, where indicated."}, "[1]": {"test_system": "Enterococcus faecalis (ATCC 29212)", "assay": "In vivo efficacy of Compound 70 in mouse models", "conditions": "mice, 3x10^7 CFU/mouse + 5% Mucin; positive control, 100mg/kg, t=0", "method": "as §5, §6"}, "[2]": {"test_system": "Staphylococcus aureus (Smith)", "assay": "In vivo efficacy of Compound 70 in mouse models", "conditions": "mice, 10^8 CFU/mouse; positive control, 30mg/kg, t=0", "method": "as §5, §6"}, "[3]": {"conditions": "HBI medium, 16 to 18 hours at 37°C"}, "[4]": {"conditions": "HBI medium, 16 to 18 hours at 37°C, read-out: MIC (µg/ml) S.aureus (Smith)"}, "[5]": {"conditions": "table of MSSA/MRSA strains, read-out: MIC (µg/ml) S. aureus (Smith)"}}, "note": "Like-named read-outs stand apart in the source and are kept apart here. Marks after values point to notes of the source that are not given here."}
{"smiles": "CCc1cc(Nc2cc(=O)n(CCCCN3CCN(c4c(F)cc5c(=O)c(C(=O)O)cn(CC)c5c4F)CC3)c(=O)[nH]2)ccc1C", "note": "[Compound 7, 3-{4-[1-(1-ethyl-3-carboxy-4-oxo-6,8-difluoro-7-quinolyl)-4-piperazinyl]butyl}-6-(3-ethyl-4-methylanilino)uracil]", "values": [{"measurement": "Ki", "setting": "B. subtilis Pol IIIC", "value": 0.021, "unit": "µM"}, {"measurement": "MIC", "setting": "B. subtilis", "value": 0.156, "unit": "µg/mL"}, {"measurement": "MIC", "setting": "S. aureus; [3]", "value": 0.625, "unit": "µg/mL"}, {"measurement": "MIC", "setting": "S. aureus; table of MSSA/MRSA strains", "value": 0.625, "unit": "µg/mL"}, {"measurement": "MIC", "setting": "S.aureus (Smith); [4]", "value": 1.25, "unit": "µg/mL"}, {"measurement": "MIC", "setting": "S.aureus (Smith); [5]", "value": 0.625, "unit": "µg/mL"}, {"measurement": "MIC", "setting": "E. fecalis", "value": 1.25, "unit": "µg/mL"}, {"measurement": "MIC", "setting": "E. fecium", "value": 1.25, "unit": "µg/mL"}, {"measurement": "MIC", "setting": "E. coli", "value": "> 20", "unit": "µg/mL"}, {"measurement": "MIC", "setting": "MRSA 1123", "value": 0.625, "unit": "µg/mL"}, {"measurement": "MIC", "setting": "MRSA1094", "value": 0.625, "unit": "µg/mL"}, {"measurement": "MIC", "setting": "MRSA1132", "value": 0.625, "unit": "µg/mL"}, {"measurement": "MIC", "setting": "MSSA108", "value": 0.313, "unit": "µg/mL"}]}
{"smiles": "CCc1cc(Nc2cc(=O)n(CCCCN3CCN(c4cc5c(cc4F)c(=O)c(C(=O)O)cn5-c4ccc(F)cc4F)CC3)c(=O)[nH]2)ccc1C", "note": "[Compound 12, 3-{4-[1-(1-{2,4-difluorophenyl}-3-carboxy-4-oxo-6-fluoro-7-quinolyl)-4-piperazinyl]butyl}-6-(3-ethyl-4-methylanilino)uracil]", "values": [{"measurement": "Ki", "setting": "B. subtilis Pol IIIC", "value": 0.018, "unit": "µM"}, {"measurement": "MIC", "setting": "B. subtilis", "value": 0.156, "unit": "µg/mL"}, {"measurement": "MIC", "setting": "S. aureus; [3]", "value": 0.313, "unit": "µg/mL"}, {"measurement": "MIC", "setting": "S. aureus; table of MSSA/MRSA strains", "value": 0.313, "unit": "µg/mL"}, {"measurement": "MIC", "setting": "S.aureus (Smith); [4]", "value": 0.313, "unit": "µg/mL"}, {"measurement": "MIC", "setting": "S.aureus (Smith); [5]", "value": 0.313, "unit": "µg/mL"}, {"measurement": "MIC", "setting": "E. fecalis", "value": 2.5, "unit": "µg/mL"}, {"measurement": "MIC", "setting": "E. fecium", "value": 5, "unit": "µg/mL"}, {"measurement": "MIC", "setting": "E. coli", "value": 2.5, "unit": "µg/mL"}, {"measurement": "MIC", "setting": "MRSA 1123", "value": 1.25, "unit": "µg/mL"}, {"measurement": "MIC", "setting": "MRSA1094", "value": 0.625, "unit": "µg/mL"}, {"measurement": "MIC", "setting": "MRSA1132", "value": 0.625, "unit": "µg/mL"}, {"measurement": "MIC", "setting": "MSSA108", "value": 0.625, "unit": "µg/mL"}]}
{"smiles": "CN[C@H](CC(C)C)C(=O)N[C@H]1C(=O)N[C@@H](CC(N)=O)C(=O)N[C@H]2C(=O)N[C@H]3C(=O)N[C@H](C(=O)N[C@H](C(=O)O)c4cc(O)cc(O)c4-c4cc3ccc4O)[C@H](O)c3ccc(c(Cl)c3)Oc3cc2cc(c3O[C@@H]2O[C@H](CO)[C@@H](O)[C@H](O)[C@H]2O[C@H]2C[C@](C)(N)[C@H](O)[C@H](C)O2)Oc2ccc(cc2Cl)[C@H]1O", "note": "[vancomycin, reference compound]", "values": [{"measurement": "% Survival at 72 hours", "setting": "MRSA 1094", "value": "95% (19/20)**"}, {"measurement": "% Survival at 72 hours", "setting": "[1]", "value": "vancomycin (100mg/kg, t=0) 100% (10/10)**"}, {"measurement": "% Survival at 72 hours", "setting": "[2]", "value": "100% (20/20)**"}]}
